IC50 data for 8 molecules are collected here from ChEMBL document CHEMBL1121709, “Importance of the aromatic ring in adrenergic amines. 6. Nonaromatic analogues of phenylethanolamine as inhibitors of phenylethanolamine N-methyltransferase: role of pi-electronic and steric interactions” (J Med Chem, 1981).

The target in the first assay is T1, Phenylethanolamine N-methyltransferase (Bos taurus, UniProt P10938).
T1 sequence (P10938 whole entry): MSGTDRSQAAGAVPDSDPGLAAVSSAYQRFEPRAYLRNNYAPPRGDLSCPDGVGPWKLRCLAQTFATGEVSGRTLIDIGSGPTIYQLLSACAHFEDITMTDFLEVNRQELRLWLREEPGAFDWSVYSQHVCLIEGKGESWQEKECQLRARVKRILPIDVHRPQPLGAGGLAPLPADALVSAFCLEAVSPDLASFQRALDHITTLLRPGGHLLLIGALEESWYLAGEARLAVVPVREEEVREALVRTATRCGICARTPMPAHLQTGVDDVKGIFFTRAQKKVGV
Kind of assay: The compound was measured for the 50% inhibition of phenylethanolamine N-methyl-transferase.
`NCC(O)C12CC3C[C@H](C1)C[C@H](C3)C2` (stereo partly drawn) displayed an IC50 of 195 µM.

On to `NCC(O)C1CCCCCCC1` (stereo not drawn), for which the IC50 was determined as 8 µM. The same measure, in the same setting: as for `NCC(O)C1CC2CCC1C2` (stereo in doubt; 13), the figure is 475 µM; as for `NCC(O)C1CC2C=CC1C2` (stereo in doubt; 9), 454 µM.

The molecule `NCC(O)C1CC2C=CC1C2` (stereo in doubt; 10) showed a half-maximal inhibitory concentration (IC50) of 1100 µM. On the same count and under the same terms, as for `NCC(O)C1CC2CCC1C2` (stereo in doubt; 12), the figure is 193 µM.

Another assay addresses T1, Phenylethanolamine N-methyltransferase. Kind of assay: The compound was measured for the 50% inhibition of phenylethanolamine N-methyl-transferase; 50% inhibition was not achieved at 10e-3 M.
In the case of `NCC(O)C12C=CC(CC1)C2` (stereo not drawn), the IC50 is above 1 mM.

Molecule `NCC(O)C12CCC(CC1)C2` (stereo not drawn) yielded an IC50 above 1 mM.
